Experimental data reported in patent US9120804B2, “8-substituted 2-amino-[1,2,4] triazolo [1, 5-A] pyrazines as Syk tryrosine kinase inhibitors and GCN2 serin kinase inhibitors” (Merck Patent GmbH, priority 2012, dated 2015).
Where a name gives a salt, the structure may show the parent alone.

Columns and labels:
[1] = target: T1, SYK (Homo sapiens, UniProt P43405); assay: SYK flash plate assay (enzyme assay); assay type: biochemical
T1 construct: 2.5 nM SYK, 400 nM Biotin-Aha-Aha-KEDPDYEWPSAKK
Outline: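 Radiometric Flashplate format: biotinylated peptide substrate (400 nM) and 33P-labelled ATP (10 μM) react with 2.5 nM enzyme for 1 hour at 30 °C in Hepes buffer, pH 7.5. After EDTA quench and washing, counts are taken; staurosporine defines non-specific signal, and IC50 values are derived.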

[2] = target: GCN2 (Homo sapiens, UniProt Q9P2K8); assay: GCN2 enzyme assay; assay type: biochemical
Sequence of GCN2 (Q9P2K8 whole entry): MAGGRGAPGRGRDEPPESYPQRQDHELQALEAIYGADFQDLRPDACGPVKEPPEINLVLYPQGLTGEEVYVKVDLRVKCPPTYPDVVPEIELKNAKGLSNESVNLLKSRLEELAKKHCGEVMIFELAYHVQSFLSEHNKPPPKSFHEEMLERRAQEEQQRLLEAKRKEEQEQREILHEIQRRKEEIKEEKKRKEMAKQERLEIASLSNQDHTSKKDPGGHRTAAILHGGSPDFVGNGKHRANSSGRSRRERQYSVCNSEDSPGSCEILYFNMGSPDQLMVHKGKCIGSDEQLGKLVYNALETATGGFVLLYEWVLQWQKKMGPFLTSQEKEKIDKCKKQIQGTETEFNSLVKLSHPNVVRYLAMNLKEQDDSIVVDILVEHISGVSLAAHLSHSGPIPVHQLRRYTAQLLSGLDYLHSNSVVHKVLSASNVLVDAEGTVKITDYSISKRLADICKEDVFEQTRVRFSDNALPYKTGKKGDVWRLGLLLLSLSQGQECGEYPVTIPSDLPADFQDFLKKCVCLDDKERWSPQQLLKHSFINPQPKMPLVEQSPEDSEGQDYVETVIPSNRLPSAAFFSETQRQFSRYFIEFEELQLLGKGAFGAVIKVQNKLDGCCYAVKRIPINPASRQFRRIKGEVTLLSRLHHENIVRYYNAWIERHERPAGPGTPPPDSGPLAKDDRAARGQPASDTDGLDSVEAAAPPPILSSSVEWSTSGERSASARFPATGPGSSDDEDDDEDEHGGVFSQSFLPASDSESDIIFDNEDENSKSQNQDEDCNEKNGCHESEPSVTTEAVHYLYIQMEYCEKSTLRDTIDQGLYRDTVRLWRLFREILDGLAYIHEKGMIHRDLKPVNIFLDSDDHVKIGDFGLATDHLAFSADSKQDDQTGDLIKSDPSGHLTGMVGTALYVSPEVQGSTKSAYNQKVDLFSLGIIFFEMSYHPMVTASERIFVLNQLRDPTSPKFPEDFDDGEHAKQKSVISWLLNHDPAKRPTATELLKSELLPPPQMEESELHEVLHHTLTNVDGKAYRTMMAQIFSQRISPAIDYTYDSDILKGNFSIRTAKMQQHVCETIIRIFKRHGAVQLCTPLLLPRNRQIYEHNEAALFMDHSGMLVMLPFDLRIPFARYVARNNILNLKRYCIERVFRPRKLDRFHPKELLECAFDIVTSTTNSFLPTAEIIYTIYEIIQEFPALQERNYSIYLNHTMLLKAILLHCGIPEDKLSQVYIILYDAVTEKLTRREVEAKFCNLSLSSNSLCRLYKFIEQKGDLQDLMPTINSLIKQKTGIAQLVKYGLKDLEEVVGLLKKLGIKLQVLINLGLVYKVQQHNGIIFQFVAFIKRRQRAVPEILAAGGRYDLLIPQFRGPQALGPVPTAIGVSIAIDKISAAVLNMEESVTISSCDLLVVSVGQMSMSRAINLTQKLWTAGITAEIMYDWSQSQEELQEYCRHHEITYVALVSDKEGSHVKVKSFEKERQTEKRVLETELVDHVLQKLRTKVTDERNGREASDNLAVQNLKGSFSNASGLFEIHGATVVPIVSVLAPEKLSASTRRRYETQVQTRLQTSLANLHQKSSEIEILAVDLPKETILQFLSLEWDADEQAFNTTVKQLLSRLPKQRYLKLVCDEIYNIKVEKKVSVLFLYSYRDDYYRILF

| Compound | IC50 [1] | IC50 [2] |
| --- | --- | --- |
| COc1ccc(Nc2nc3c(-c4cnn(C)c4)nccn3n2)cc1 [C2, (4-Methoxy-phenyl)-[8-(1-methyl-1H-pyrazol-4-yl)-[1,2,4]triazolo[1,5-a]pyrazin-2-yl]-amine] | 0.3 to 3 µM | 3 to 50 µM |
| COc1ccc(Nc2nc3c(-c4cnn(C)c4)nccn3n2)cc1OC [C6, (3,4-Dimethoxy-phenyl)-[8-(1-methyl-1H-pyrazol-4-yl)-[1,2,4]triazolo[1,5-a]pyrazin-2yl]-amine] | 0.3 to 3 µM | 0.3 to 3 µM |
| Cn1cc(-c2nccn3nc(Nc4cccc(N5CCOCC5)c4)nc23)cn1 [C18, [8-(1-Methyl-1H-pyrazol-4-yl)-[1,2,4]triazolo[1,5-a]pyrazin-2-yl]-(3-morpholin-4-yl-phenyl)-amine] | 0.3 to 3 µM | 3 to 50 µM |
| Cn1cc(-c2nccn3nc(Nc4ccc5cnn(C)c5c4)nc23)cn1 [C21, (1-Methyl-1H-indazol-6-yl)-[8-(1-methyl-1H-pyrazol-4-yl)-[1,2,4]triazolo[1,5-a]pyrazin-2-yl]-amine] | 0.3 to 3 µM | 3 to 50 µM |
| Cn1cc(Nc2nc3c(-c4cnn(C)c4)nccn3n2)cn1 [C26, (1-Methyl-1H-pyrazol-4-yl)-[8-(1-methyl-1H-pyrazol-4-yl)-[1,2,4]triazolo[1,5-a]pyrazin-2-yl]-amine] | 0.3 to 3 µM | 3 to 50 µM |
| Cn1cc(-c2nccn3nc(Nc4ccc5nnn(C)c5c4)nc23)cn1 [C30, (3-Methyl-3H-benzotriazol-5-yl)-[8-(1-methyl-1H-pyrazol-4-yl)-[1,2,4]triazolo[1,5-a]pyrazin-2-yl]-amine] | 0.3 to 3 µM | 0.3 to 3 µM |
| CN(C)Cc1nc2ccc(Nc3nc4c(-c5cnn(C)c5)nccn4n3)cc2[nH]1 [C33, (2-Dimethylaminomethyl-3H-benzoimidazol-5-yl)-[8-(1-methyl-1H-pyrazol-4-yl)-[1,2,4]triazolo[1,5-a]pyrazin-2-yl]-amine] | 0.1 to 0.3 µM | 0.3 to 3 µM |
| Cn1cc(-c2nccn3nc(Nc4ccc5c(c4)NC(=O)C5(C)C)nc23)cn1 [C34, 3,3-Dimethyl-6-[8-(1-methyl-1H-pyrazol-4-yl)-[1,2,4]triazolo[1,5-a]pyrazin-2-ylamino]-1,3-dihydro-indol-2-one] | < 0.1 µM | 3 to 50 µM |
| CS(=O)(=O)c1ccc(-c2nccn3nc(Nc4ccc(N5CCOCC5)cc4)nc23)cc1 [C38, 8-(4-methylsulfonylphenyl)-N-(4-morpholinophenyl)-[1,2,4]triazolo[1,5-a]pyrazin-2-amine] | 0.1 to 0.3 µM | 0.3 to 3 µM |
| O=C(c1ccc(-c2nccn3nc(Nc4ccc(N5CCOCC5)cc4)nc23)cc1)N1CCOCC1 [C41, morpholin-4-yl-{4-[2-(4-morpholin-4-yl-phenylamino)-[1,2,4]triazolo[1,5-a]pyrazin-8-yl]-phenyl}-methanone] | 3 to 50 µM | 3 to 50 µM |
| Cc1nc2cc(Nc3nc4c(-c5ccc(C(=O)N6CCOCC6)cc5)nccn4n3)ccc2[nH]1 [C48, {4-[2-(2-methyl-1H-benzoimidazol-5-ylamino)-[1,2,4]triazolo[1,5-a]pyrazin-8-yl]-phenyl}-morpholin-4-yl-methanone] | 3 to 50 µM | 0.3 to 3 µM |
| COc1cc(Nc2nc3c(N4CCC(O)(CCO)CC4)nccn3n2)cc(OC)c1 [C49, 1-[2-(3,5-dimethoxy-phenylamino)-[1,2,4]triazolo[1,5-a]pyrazin-8-yl]-4-(2-hydroxy-ethyl)-piperidin-4-ol] | 0.3 to 3 µM | 3 to 50 µM |
| COc1cc(Nc2nc3c(N4CCC(N)CC4)nccn3n2)cc(OC)c1 [C50, [8-(4-amino-piperidin-1-yl)-[1,2,4]triazolo[1,5-a]pyrazin-2-yl]-(3,5-dimethoxy-phenyl)-amine] | 0.3 to 3 µM | 3 to 50 µM |
| COc1cc(Nc2nc3c(N4CCN(C(C)=O)CC4)nccn3n2)cc(OC)c1 [C51, 1-{4-[2-(3,5-dimethoxy-phenylamino)-[1,2,4]triazolo[1,5-a]pyrazin-8-yl]-piperazin-1-yl}-ethanone] | 3 to 50 µM | 3 to 50 µM |
| COc1cc(Nc2nc3c(N4CCN(C)CC4c4ccccc4)nccn3n2)cc(OC)c1 (centres unmarked) [C55, (3,5-dimethoxy-phenyl)-[8-(4-methyl-2-phenyl-piperazin-1-yl)-[1,2,4]triazolo[1,5-a]pyrazin-2-yl]-amine] | 0.3 to 3 µM | 3 to 50 µM |
| Cc1nc2cc(Nc3nc4c(-c5ccc(CN6CCOCC6)cc5)nccn4n3)ccc2[nH]1 [C57, (2-methyl-1H-benzoimidazol-5-yl)-[8-(4-morpholin-4-ylmethyl-phenyl)-[1,2,4]triazolo[1,5-a]pyrazin-2-yl]-amine] | 3 to 50 µM | 0.3 to 3 µM |
| Cc1nc2cc(Nc3nc4c(-c5ccc(S(C)(=O)=O)cc5)nccn4n3)ccc2[nH]1 [C58, [8-(4-methanesulfonyl-phenyl)-[1,2,4]triazolo[1,5-a]pyrazin-2-yl]-(2-methyl-1H-benzoimidazol-5-yl)-amine] | 0.3 to 3 µM | 0.3 to 3 µM |
| CC1(C)C(=O)Nc2cc(Nc3nc4c(-c5ccc(N(C(F)(F)F)C(F)(F)F)cc5)nccn4n3)ccc21 [E152, 6-{8-[4-(bis-trifluoromethyl-amino)-phenyl]-[1,2,4]triazolo[1,5-a]pyrazin-2-ylamino}-3,3-dimethyl-1,3-dihydro-indol-2-one] | 3 to 50 µM | – |
| CC1(C)CCNc2cc(Nc3nc4c(N5CCN6C(=O)CNC(=O)C6C5)nccn4n3)ccc21 (centres unmarked) [E154, 8-[2-(4,4-dimethyl-1,2,3,4-tetrahydro-quinolin-7-ylamino)-[1,2,4]triazolo[1,5-a]pyrazin-8-yl]-hexahydro-pyrazino[1,2-a]pyrazine-1,4-dione] | < 0.1 µM | – |
| Cn1cc(-c2nccc3nc(Nc4ccc5c(c4)NC(=O)CCC5(C)C)nn23)cn1 [E155, 5,5-dimethyl-8-[5-(1-methyl-1H-pyrazol-4-yl)-[1,2,4]triazolo[1,5-c]pyrimidin-2-ylamino]-1,3,4,5-tetrahydro-benzo[b]azepin-2-one] | < 0.1 µM | – |

Further lines, results first:

| IC50 [1] | IC50 [2] | Compound |
| --- | --- | --- |
| 3 to 50 µM | 3 to 50 µM | COc1cccc(Nc2nc3c(-c4cnn(C)c4)nccn3n2)c1 [C8, (3-Methoxy-phenyl)-[8-(1-methyl-1H-pyrazol-4-yl)-[1,2,4]triazolo[1,5-a]pyrazin-2-yl]-amine] |
| 0.1 to 0.3 µM | 3 to 50 µM | Cn1cc(-c2nccn3nc(Nc4ccc5cn[nH]c5c4)nc23)cn1 [C12, (1H-Indazol-6-yl)-[8-(1-methyl-1H-pyrazol-4-yl)-[1,2,4]triazolo[1,5-a]pyrazin-2-yl]-amine] |
| 3 to 50 µM | 0.3 to 3 µM | Cn1cc(-c2nccn3nc(Nc4cccc(S(N)(=O)=O)c4)nc23)cn1 [C14, 3-[8-(1-Methyl-1H-pyrazol-4-yl)-[1,2,4]triazolo[1,5-a]pyrazin-2-ylamino]-benzenesulfonamide] |
| 0.3 to 3 µM | 3 to 50 µM | Cn1cc(-c2nccn3nc(Nc4ccc(S(N)(=O)=O)cc4)nc23)cn1 [C16, 4-[8-(1-Methyl-1H-pyrazol-4-yl)-[1,2,4]triazolo[1,5-a]pyrazin-2-ylamino]-benzenesulfonamide] |
| 0.3 to 3 µM | 3 to 50 µM | Cn1cc(-c2nccn3nc(Nc4ccc(S(C)(=O)=O)cc4)nc23)cn1 [C23, (4-Methanesulfonyl-phenyl)-[8-(1-methyl-1H-pyrazol-4-yl)-[1,2,4]triazolo[1,5-a]pyrazin-2-yl]-amine] |
| 3 to 50 µM | 0.3 to 3 µM | Cn1cc(-c2nccn3nc(Nc4cnn(C5CCNCC5)c4)nc23)cn1 [C28, [8-(1-Methyl-1H-pyrazol-4-yl)-[1,2,4]triazolo[1,5-a]pyrazin-2-yl]-(1-piperidin-4-yl-1H-pyrazol-4-yl)-amine hydrochloride] |
| 0.1 to 0.3 µM | 3 to 50 µM | Cn1nnc2ccc(Nc3nc4c(-c5ccccc5-c5ccccc5)nccn4n3)cc21 [C29] |
| 0.3 to 3 µM | 3 to 50 µM | Cn1cc(-c2nccn3nc(Nc4ccc([S+](C)[O-])cc4)nc23)cn1 (centres unmarked) [C32, (4-Methanesulfinyl-phenyl)-[8-(1-methyl-1H-pyrazol-4-yl)-[1,2,4]triazolo[1,5-a]pyrazin-2-yl]-amine] |
| 0.3 to 3 µM | 0.3 to 3 µM | Cn1cc(-c2nccn3nc(Nc4ccc(C#N)c(O)c4)nc23)cn1 [C36, 2-Hydroxy-4-[8-(1-methyl-1H-pyrazol-4-yl)-[1,2,4]triazolo[1,5-a]pyrazin-2-ylamino]-benzonitrile] |
| 0.3 to 3 µM | 3 to 50 µM | COc1cc(Nc2nc3c(N4CCNC(=O)C4)nccn3n2)cc(OC)c1 [C43, 4-[2-(3,5-dimethoxy-phenylamino)-[1,2,4]triazolo[1,5-a]pyrazin-8-yl]-piperazin-2-one] |
| 3 to 50 µM | 3 to 50 µM | COc1cc(Nc2nc3c(N4CCCC(C(=O)NCCO)C4)nccn3n2)cc(OC)c1 (centres unmarked) [C45, 1-[2-(3,5-dimethoxy-phenylamino)-[1,2,4]triazolo[1,5-a]pyrazin-8-yl]-piperidine-3-carboxylic acid (2-hydroxy-ethyl)-amide] |
| 0.3 to 3 µM | 3 to 50 µM | COc1cc(Nc2nc3c(N4CCN(C(=O)CO)CC4)nccn3n2)cc(OC)c1 [C56, 1-{4-[2-(3,5-dimethoxy-phenylamino)-[1,2,4]triazolo[1,5-a]pyrazin-8-yl]-piperazin-1-yl}-2-hydroxy-ethanone] |
| 3 to 50 µM | 0.3 to 3 µM | Cc1nc2cc(Nc3nc4c(-c5ccc(CN6CCOCC6)c(F)c5)nccn4n3)ccc2[nH]1 [C59, [8-(3-fluoro-4-morpholin-4-ylmethyl-phenyl)-[1,2,4]triazolo[1,5-a]pyrazin-2-yl]-(2-methyl-1H-benzoimidazol-5-yl)-amine] |
| 0.3 to 3 µM | – | CN(c1cccc(C(N)=O)c1)c1nccn2nc(Nc3ccc4c(c3)NC(=O)C4(C)C)nc12 [E151, 3-{[2-(3,3-dimethyl-2-oxo-2,3-dihydro-1H-indol-6-ylamino)-[1,2,4]triazolo[1,5-a]pyrazin-8-yl]-methyl-amino}-benzamide] |
| < 0.1 µM | – | CC1(C)C(=O)Nc2cc(Nc3nc4c(N5CCC6(CN[C@H](C(F)(F)F)C6)C5)nccn4n3)ccc21 (stereo partly drawn) [E153, 3,3-dimethyl-6-[8-((S)-8-trifluoromethyl-2,7-diaza-spiro[4.4]non-2-yl)-[1,2,4]triazolo[1,5-a]pyrazin-2-ylamino]-1,3-dihydro-indol-2-one] |
